The source of these data is patent publication US11426402B2, “IRE1 activating compounds for use in therapy” (The Scripps Research Institute, priority 2019, dated 2022).

One assay concerns XBP1 splicing. In words: XBP1 splicing in HEK293T cells with or without KIRA6. The format is cell-based. Here is the method:
To amplify the spliced and unspliced XBP1 mRNA, XBP1 primers were used as described previously.^21 PCR products were electrophoresed on 2.5% agarose gel. GAPDH (forward 5′[…]3′, reverse 5′[…]3′) was used as a loading control. The size difference between the spliced and the unspliced XBP1 is 26 nucleotides.
Next was determined the dependence of compound-dependent IRE1 RNAse activation on autophosphorylation. HEK293T cells were initially treated with the compounds in the absence or presence of KIRA6—a compound that binds the nucleotide binding pocket and inhibits both IRE1 kinase and RNAse activity^36. Co-treatment with KIRA6 blocked compound-dependent XBP1splicing.

For assay [1], the system named is RIDD targets SCARA3, Bloc1s1 and Col6A1. As to the kind of experiment: IRE1 RIDD activity from the RNAseq dataset in HEK293T cells. In kind it is cell-based, human. Particulars: 6 hours. On the procedure: Cells were lysed and total RNA collected using the RNeasy mini kit, according to manufacturer's instructions (Qiagen). Conventional RNA-seq was conducted via BGI Americas on the BGI Proprietary platform, providing single-end 50 bp reads at 20 million reads per sample. Alignment of sequencing data was done using DNAstar Lasergene SeqManPro to the GRCh37. p 13 human genome reference assembly, and assembly data were imported into ArrayStar 12.2 with QSeq (DNAStar Inc.) to quantify the gene expression levels and normalization to reads per kilobase per million (RPKM). Differential expression analysis and statistical significance calculations between different conditions was assessed using “DESeq” in R, compared to vehicle-treated cells, using a standard negative binomial fit of the RPKM data to generate Fold Change quantifications.
Also evaluated was IRE1 RIDD activity induced by the compounds using the RNAseq dataset. Despite robust IRE1/XBP1s transcriptional activity following 6 hours of treatment, there was no evidence for RIDD after the same 6 hours.

The next assay deals with IRE1 (Homo sapiens, UniProt O75460). As to the kind of experiment: IRE1 phosphorylation by Phos-tag SDS-PAGE and immunoblotting in HEK293T cells. The format is cell-based. Particulars: co-treatment of Tg (500 nM) and 1 μM APY29. Here is the method:
(§1) FIG. 3A-FIG. 3D. […] Error bars show SEM for n=3. […] Error bars show SEM for n=3. […] Error bars show SEM for n=3.
Cell lysates were prepared as previously described in RIPA buffer (50 mM Tris, pH 7.5, 150 mM NaCl, 0.1% SDS, 1% Triton X-100, 0.5% deoxycholate and protease inhibitor cocktail (Roche). Total protein concentration in cellular lysates was normalized using the Bio-Rad protein assay. Lysates were then denatured with 1× Laemmli buffer+100 mM DTT and boiled before being separated by SDS-PAGE. Samples were transferred onto nitrocellulose membranes (Bio-Rad) for immunoblotting and blocked with 5% milk in Tris-buffered saline, 0.5% Tween-20 (TBST) following incubation overnight at 4° C. with primary antibodies. Membranes were washed in TBST, incubated with IR-Dye conjugated secondary antibodies and analyzed using Odyssey Infrared Imaging System (LI-COR Biosciences). Quantification was carried out with LI-COR Image Studio software.
Compounds that activate IRE1 through binding the IRE1 kinase active site and inhibiting IRE1 autophosphorylation can elicit off-target activity likely associated with binding to other protein kinases.^20, 35, 36 Thus, the purpose of this example was to define the dependence of the present compounds on IRE1 kinase activity. HEK293T cells were treated with compound 198, 474, or 970 in the absence or presence of Tg, and IRE1 phosphorylation was monitored by using Phos-tag SDS-PAGE and immunoblotting. As a control, cells were treated with APY29—an IRE1 kinase site inhibitor that allosterically activates the IRE1 RNAse^20 in the absence or presence of Tg.
(In general: Immunoblotting shows a protein as a band on a membrane.)

The test system of the next assay is DNAJB9. The format is cell-based. Particulars: 4 μ8c 32 μM.
Assay [2] concerns IRE1/XBP1s signaling pathway. In words: XBP1-RLuc splicing reporter in HEK293T-REx cells. The format is cell-based. Particulars: activators 10 μM, 4 μ8c 32 μM, 18 hr. Here is the method:
FIG. 2A and FIG. 2B. Activation of RLuc luminescence in HEK293T-Rex cells stably expressing XBP1s-RLuc treated with 10 μM IRE1 activators in the presence or absence of IRE1 inhibitor 4 μ8c (32 μM) for 18 hr. Luminescence is shown as % signal relative to Tg treatment (500 nM; 18 hr). Error bars represent standard deviation for n=3 replicates (FIG. 2A), Activation of RLuc luminescence in HEK293T-Rex cells stably expressing XBP1s-RLuc treated with the indicated concentrations of IRE1 activator compounds for 18 hr. Luminescence is shown as % signal relative to Tg treatment (500 nM; 18 hr) Error bars represent standard deviation for n=3 replicates (FIG. 2B).
HEK293T-Rex cells incorporating either the XBP1s-Rluc or ERSE-FLuc reporters were collected by trypsinization and resuspended at a density of 500,000 cells per mL. The assay was started by dispensing 5 μL of cell suspension into each well of white, solid-bottom 1536-well plates using a flying reagent dispenser (FRD) and placed into an online incubator for 3 hr. Cells were then treated with 34 nL/well of either test compounds to give final concentrations of 5.17 μM, DMSO (low control, final concentration 0.68%, 0% activation) or 37 μM of Delta-7 thapsigargin (high control, final concentration 500 nM, 100% activation). Plates were incubated for 18 hr at 37° C., removed from the incubator and equilibrated to room temperature for 10 min. Luciferase activity was detected by addition of 5 μL of ONE-Glo reagent (Promega) to each well. After a 10 min incubation time, light emission was measured with the ViewLux reader (PerkinElmer).
The percent activation of each test compound was calculated as follows: % Activation=100*(Test Compound-Median Low Control)/(Median High Control Median Low Control). Primary screening of the 646,275 compound library at Scripps Florida yielded 10,114 hits for XBP1s Renilla Luciferase activity at ≥13.83% activation by thapsigargin. Compounds that hit in more than 7 screens (promiscuity score) were eliminated, as well as those that elicited HSP70 activation. The top 6,391 remaining compounds (activation≥16.36%) were moved forward to triplicate confirmation screening and HEK TREX CTG cytotoxicity counterscreening. Duplicates were removed from the resulting list, and the top 638 activating compounds (≥15.92%) were moved forward for triplicate titration screening and HEK TREX CTG titration counterscreening.
A HEK293^T-REx cell line that stably expresses a XBP1-Renilla luciferase (XBP1-RLuc) splicing reporter was used to identify compounds that activated the IRE1/XBP1s signaling pathway^37. Activated IRE1selectively splices mRNA encoded by this reporter, resulting in a frame-shift that allows expression of the active Renilla luciferase enzyme^37. […]

For another assay, the system named is APP. In words: APP immunoblots of lysates and conditioned media of CHO 7PA2 cells. In kind it is cell-based. Particulars: with compound 474. On the procedure: FIGS. 5A-5D. […] Cells were treated for 18 hours, media was then replaced and conditioned in the presence of treatments for 24 hours before harvesting for ELISA assay. Error bars represent SEM for n=3 replicates. Statistics calculated from one-tailed Student's t-test. *p<0.05, **p<0.01, ***p<0.001 (FIG. 5A). Quantification of media and lysate immunoblots from 474 treatment (10 μM) of APP. Error bars represent Standard Deviation for n=3 replicates. Statistics calculated from one-tailed Student's t-test. *p<0.05, **p<0.01 ***p<0.001 (FIG. 5B). Plot showing fraction of total remaining APP at each time point after S35 metabolic labeling of newly synthesized protein, accounting for the sum of APP in lysate and media. Error bars represent Standard Deviation for n=3 replicates. Statistics calculated from one-tailed Student's t-test. *p<0.05, **p<0.01, ***p<0.001 (FIG. 5C). Plot showing fraction of secreted APP collected at 2 hours after metabolic labeling. Error bars represent Standard Deviation for n=3 replicates. Statistics calculated from one-tailed Student's t-test. *p<0.05, **p<0.01, ***p<0.001 (FIG. 5D). […]

The test system of another assay is secreted Aβ. As to the kind of experiment: Aβ ELISA of media conditioned on CHO 7PA2 cells (V717F APP). In kind it is cell-based. Particulars: 4 μ8c 32 μM. Here is the method:
FIGS. 5A-5D. […] Cells were treated for 18 hours, media was then replaced and conditioned in the presence of treatments for 24 hours before harvesting for ELISA assay. Error bars represent SEM for n=3 replicates. Statistics calculated from one-tailed Student's t-test. *p<0.05, **p<0.01, ***p<0.001 (FIG. 5A). Quantification of media and lysate immunoblots from 474 treatment (10 μM) of APP. Error bars represent Standard Deviation for n=3 replicates. Statistics calculated from one-tailed Student's t-test. *p<0.05, **p<0.01 ***p<0.001 (FIG. 5B). Plot showing fraction of total remaining APP at each time point after S35 metabolic labeling of newly synthesized protein, accounting for the sum of APP in lysate and media. Error bars represent Standard Deviation for n=3 replicates. Statistics calculated from one-tailed Student's t-test. *p<0.05, **p<0.01, ***p<0.001 (FIG. 5C). Plot showing fraction of secreted APP collected at 2 hours after metabolic labeling. Error bars represent Standard Deviation for n=3 replicates. Statistics calculated from one-tailed Student's t-test. *p<0.05, **p<0.01, ***p<0.001 (FIG. 5D).
7PA2 or 7WD10 cells were cultured on 96-well plates (Corning) and treated with IRE1 activating compounds +/−4 μ8c overnight. The medium was then replaced at 50% volume with treatment remaing, culture medium was collected after 24 hours. The medium was analyzed by an AP ELISA as follows. Monoclonal 6E10 anti-Aβ(residues 1-17) mouse IgG1, (Biolegend) was coated in […] carbonate buffer, pH 9.6, at 4° C. overnight on high binding assay black plates (Costar), washed with TBST (tris buffered saline with 0.05% Tween 20) and blocked with 5% non-fat milk in TBST. Samples and standards (condition 7PA2 media) were incubated for 1.5 hr, followed by addition of 4G8 antibody [anti-Aβ residues 17-24, mouse IgG2b (Biolegend)] conjugated to horseradish peroxidase (hrp) and incubated for 1.5 hr at 25° C. After washing, ABM substrate was added, followed by detection with an absorbance plate reader.
ELISA was used to monitor Aβ in media conditioned on a CHO cell line stably expressing the destabilized, disease-associated V717F APP mutant (CHO^7PA2)^45 treated with or without compounds 198, 474, and 970. […] The reduction in A secretion can be attributed to IRE1 activation because the reduced extracellular accumulation of Aβ is blocked by co-treatment with the active site IRE1 inhibitor 4 μ8c (FIG. 5A).

The next assay has as its system BiP. In words: qPCR of ATF6-regulated gene BiP in HEK293T cells. The format is cell-based. Here is the method: as §1
The compounds were measured for their abilities to induce expression of ER stress-responsive genes CHOP and BiP (or […]) regulated downstream of the PERK and ATF6 UPR signaling pathways, respectively^8, 40. The Tg-dependent expression of these two genes is largely insensitive to 4 μ8c, confirming their induction through an IRE1/XBP1s independent mechanism.

Sequence of IRE1 (O75460 19-977): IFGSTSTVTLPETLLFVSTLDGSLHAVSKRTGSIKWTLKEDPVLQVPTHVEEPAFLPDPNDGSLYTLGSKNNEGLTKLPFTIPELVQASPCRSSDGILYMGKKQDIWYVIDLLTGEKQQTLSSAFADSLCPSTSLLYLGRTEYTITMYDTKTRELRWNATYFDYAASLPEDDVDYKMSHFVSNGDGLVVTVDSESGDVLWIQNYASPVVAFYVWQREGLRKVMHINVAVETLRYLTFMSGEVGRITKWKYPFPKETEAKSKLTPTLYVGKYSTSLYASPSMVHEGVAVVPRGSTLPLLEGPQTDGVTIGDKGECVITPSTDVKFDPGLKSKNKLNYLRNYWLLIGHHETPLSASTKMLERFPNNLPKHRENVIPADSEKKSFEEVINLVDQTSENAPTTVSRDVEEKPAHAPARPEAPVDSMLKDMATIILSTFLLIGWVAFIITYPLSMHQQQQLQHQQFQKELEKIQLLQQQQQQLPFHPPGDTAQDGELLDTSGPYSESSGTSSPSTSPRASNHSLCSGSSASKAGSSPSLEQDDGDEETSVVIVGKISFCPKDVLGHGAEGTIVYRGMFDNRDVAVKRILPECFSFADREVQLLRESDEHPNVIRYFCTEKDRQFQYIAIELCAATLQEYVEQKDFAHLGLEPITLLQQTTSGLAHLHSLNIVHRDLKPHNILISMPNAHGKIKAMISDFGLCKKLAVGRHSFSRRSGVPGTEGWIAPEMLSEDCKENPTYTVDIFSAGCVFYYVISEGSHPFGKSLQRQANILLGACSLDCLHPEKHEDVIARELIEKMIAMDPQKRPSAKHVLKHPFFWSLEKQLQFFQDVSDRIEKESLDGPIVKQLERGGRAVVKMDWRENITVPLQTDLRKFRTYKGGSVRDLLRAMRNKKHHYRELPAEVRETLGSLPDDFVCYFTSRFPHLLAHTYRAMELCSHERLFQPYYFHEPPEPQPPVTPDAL

For the compound `CC(C)(C)c1nc(-c2ccc(NC(=O)Nc3cccc(C(F)(F)F)c3)c3ccccc23)c2c(N)nccn12` [KIRA6], the “effect of KIRA6 co-treatment on compound-dependent XBP1 splicing” value in the assay on XBP1 splicing is listed as “blocked”.

With `C/C=C(/C)C(=O)O[C@H]1C(C)=C2[C@H]([C@@H]1OC(=O)CCCCCCC)[C@@](C)(OC(C)=O)C[C@H](OC(=O)CCC)[C@@]1(O)[C@H]2OC(=O)[C@@]1(C)O` [Tg, thapsigargin], in assay [1], the “levels of RIDD targets SCARA3, Bloc1s1 and Col6A1” value is reported as “reduced”.

Turning to `c1cc(Nc2cc(C3CC3)[nH]n2)nc(Nc2ccc3nc[nH]c3c2)n1` [APY29, reference compound], the IRE1 phosphorylation result on IRE1 is given as “significant reductions”.

In the case of `Cc1cc(=O)oc2c(C=O)c(O)ccc12` [4 μ8c, reference compound], in the assay with DNAJB9, the “effect of 4 μ8c co-treatment on compound-increased DNAJB9 expression” value is “inhibited”. The “effect of 4 μ8c co-administration on compound-dependent XBP1 splicing reporter activation” value in assay [2] is on record as “blocked”. The “effect of 4 μ8c co-treatment on reduced APP levels” value in the assay with APP is given as “reversed”. Besides, the “effect of 4 μ8c co-treatment on reduced extracellular Aβ” value in the assay with secreted Aβ is reported as “blocked”. Moreover, the “effect of co-treatment on compound-dependent BiP increase” value in the assay on BiP is “blocked”.
